molecular target: BACE (Homo sapiens, UniProt P56817); assay: Ki Determination for the Inhibition of BACE (FS-1 peptide fluorescence cleavage assay); type: biochemical; settings: apparent Ki; 50 nM BACE, 10 μM FS-1 substrate, 0.1M sodium acetate pH 4.5
Protocol: Compounds were tested against BACE activity using the following modifications of the method described in J. Ermolieff et al. (2000) Biochemistry 39(51):16263.
All compound evaluations were performed in 0.1M sodium acetate (buffer), pH, 4.5, 10 μM substrate (FS-1 peptide as described in the reference above; this is commercially available), varying concentrations of the test compound or control (DMSO to yeild 2% vol/vol), and 50 nM BACE. The assay volume is 100 μL.
Two microliters of the test compound dissolved in DMSO are added to each well in a 96-well microtiter plate. Seventy eight microliters of BACE are mixed with buffer and added to each well then incubated at room temperature for 15 minutes. A stock solution of 50 μM FS-1 substrate was prepared by addition of an aliquot of FS-1 substrate which was dissolved in DMSO to the buffer and mixed well. The reaction is initiated by addition of 20 μL of the FS-1 mix to the remaining, preincubated assay components. The cleavage reaction of substrate to product is measured using a Molecular Devices fluorescence plate reader with the excitation and emission filter pairs of 355 nm and 495 nm, respectively. Apparent Ki values are determined by fitting the data to the integrated equation for competitive tight binding inhibition.

Chain of BACE (P56817 46-501): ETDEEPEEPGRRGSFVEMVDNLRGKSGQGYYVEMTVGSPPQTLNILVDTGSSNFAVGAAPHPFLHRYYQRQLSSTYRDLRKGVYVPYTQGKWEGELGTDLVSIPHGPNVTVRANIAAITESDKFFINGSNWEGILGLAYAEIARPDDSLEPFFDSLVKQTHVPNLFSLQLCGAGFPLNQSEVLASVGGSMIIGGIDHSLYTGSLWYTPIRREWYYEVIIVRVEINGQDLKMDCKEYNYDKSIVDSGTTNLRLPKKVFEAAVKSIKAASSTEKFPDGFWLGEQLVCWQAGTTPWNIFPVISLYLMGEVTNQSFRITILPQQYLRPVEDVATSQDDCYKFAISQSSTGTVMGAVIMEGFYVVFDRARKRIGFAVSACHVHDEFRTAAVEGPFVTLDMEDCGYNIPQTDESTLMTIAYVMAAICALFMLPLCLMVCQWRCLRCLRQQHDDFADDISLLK

Ki [µM] | Structure (SMILES)
3 to 30 | O=C(C1CNCCC1c1ccc(COc2ccccc2C(F)(F)F)cc1)N(Cc1ccccc1)c1ccc2ccccc2c1 (stereo not drawn) [Compound 220, 4-[4-(2-Trifluoromethyl-phenoxymethyl)-phenyl]-piperidine-3-carboxylic acid benzyl-naphthalen-2-yl-amide]
< 3 | O=C(c1cccc2ccccc12)n1c2c(c3cc(OCc4ccc(C(F)(F)F)cc4)ccc31)CCNC2 [Compound 506, Naphthalen-1-yl-[6-(4-trifluoromethyl-benzyloxy)-1,2,3,4-tetrahydro-b-carbolin-9-yl]-methanone]
< 3 | FC(F)(F)c1ccccc1OCc1cc(-c2ccc[nH]2)c(COc2ccccc2C(F)(F)F)cc1C1=CCNCC1 [Compound 358, 4-[4-(1H-Pyrrol-2-yl)-2,5-bis-(2-trifluoromethyl-phenoxymethyl)-phenyl]-1,2,3,6-tetrahydro-pyridine]
< 3 | O=C(c1cccc2ccccc12)n1c2c(c3cc(OCc4cc(C(F)(F)F)ccc4Cl)ccc31)CCNC2 [Compound 510, [6-(2-Chloro-5-trifluoromethyl-benzyloxy)-1,2,3,4-tetrahydro-b-carbolin-9-yl]-naphthalen-1-yl-methanone]
< 3 | FC(F)(F)c1cccc(OCc2ccc(COc3ccccc3C(F)(F)F)cc2C2=CCNCC2)c1 [Compound 324, 4-[5-(2-Trifluoromethyl-phenoxymethyl)-2-(3-trifluoromethyl-phenoxymethyl)-phenyl]-1,2,3,6-tetrahydro-pyridine]
< 3 | O=C(Nc1cc(-c2ccc(Cl)cc2Cl)ccc1N1CCNCC1)c1cccc2ccccc12 [Compound 107, Naphthalene-1-carboxylic acid (2′,4′-dichloro-4-piperazin-1-yl-biphenyl-3-yl)-amide]
3 to 30 | FC(F)(F)c1ccccc1OCc1cc(Br)ccc1C1=CCNCC1 [Compound 377, 4-[4-Bromo-2-(2-trifluoromethyl-phenoxymethyl)-phenyl]-1,2,3,6-tetrahydro-pyridine]
3 to 30 | O=C(Nc1cc(-c2ccc(Cl)cc2)ccc1N1CCNCC1)c1cccc2ccccc12 [Compound 121, Naphthalene-1-carboxylic acid (4′-chloro-4-piperazin-1-yl-biphenyl-3-yl)-amide]
< 3 | FC(F)(F)c1cccc(COc2ccc3c(c2)c2c(n3Cc3ccc4ccccc4c3)CNCC2)c1 [Compound 537, 9-Naphthalen-2-ylmethyl-6-(3-trifluoromethyl-benzyloxy)-2,3,4,9-tetrahydro-1H-b-carboline]
> 30 | O=C(Cc1cccc2ccccc12)Nc1cc(C(F)(F)F)ccc1N1CCNCC1 [Compound 134, 2-Naphthalen-1-yl-N-(2-piperazin-1-yl-5-trifluoromethyl-phenyl)-acetamide]
< 3 | O=C(Nc1cc(C(F)(F)F)c(-c2ccc(Cl)c(Cl)c2)cc1N1CCNCC1)c1cccc2ccccc12 [Compound 168, Naphthalene-1-carboxylic acid (3′,4′-dichloro-5-piperazin-1-yl-2-trifluoromethyl-biphenyl-4-yl)-amide]
< 3 | COC(=O)c1cccc(-c2cc(COc3ccccc3C(F)(F)F)c(C3=CCNCC3)cc2COc2ccccc2C(F)(F)F)c1 [Compound 368, 4′-(1,2,3,6-Tetrahydro-pyridin-4-yl)-2′,5′-bis-(2-trifluoromethyl-phenoxymethyl)-biphenyl-3-carboxylic acid methyl ester]
< 3 | FC(F)Oc1ccc(COc2ccc3c(c2)c2c(n3Cc3ccc4ccccc4c3)CNCC2)cc1 [Compound 513, 6-(4-Difluoromethoxy-benzyloxy)-9-naphthalen-2-ylmethyl-2,3,4,9-tetrahydro-1H-b-carboline]
< 3 | FC(F)(F)c1ccccc1OCc1ccc(COc2cccc3ncccc23)c(C2=CCNCC2)c1 [Compound 327, 5-[2-(1,2,3,6-Tetrahydro-pyridin-4-yl)-4-(2-trifluoromethyl-phenoxymethyl)-benzyloxy]-quinoline]
< 3 | O=C(Nc1cc(-c2ccoc2)c(COc2ccccc2C(F)(F)F)cc1N1CCNCC1)c1nccc2ccccc12 [Compound 187, Isoquinoline-1-carboxylic acid [5-furan-3-yl-2-piperazin-1-yl-4-(2-trifluoromethyl-phenoxymethyl)-phenyl]-amide]
3 to 30 | O=C1c2ccccc2C(=O)N1CC1CNCCC1c1ccc(COc2ccccc2C(F)(F)F)cc1 (stereo not drawn) [Compound 212, 2-{4-[4-(2-Trifluoromethyl-phenoxymethyl)-phenyl]-piperidin-3-ylmethyl}-isoindole-1,3-dione]
3 to 30 | O=C(CNC(=O)C(Cc1ccccc1)NC(=O)OCc1ccccc1)NCC1CNCCC1c1ccc(COc2ccccc2C(F)(F)F)cc1 (stereo not drawn) [Compound 225, (2-Phenyl-1-{[({4-[4-(2-trifluoromethyl-phenoxymethyl)-phenyl]-piperidin-3-ylmethyl}-carbamoyl)-methyl]-carbamoyl}-ethyl)-carbamic acid benzyl ester]

Ki [µM] | Structure (SMILES)
3 to 30 | Cc1ccccc1Oc1ccc(N2CCNCC2)c(NC(=O)c2cccc3ccccc23)c1 [Compound 140, Naphthalene-1-carboxylic acid (2-piperazin-1-yl-5-o-tolyloxy-phenyl)-amide]
3 to 30 | O=c1cc(-c2ccccc2)nc(C2CCNCC2)n1Cc1ccccc1C(F)(F)F [Compound 214, 6-Phenyl-2-piperidin-4-yl-3-(2-trifluoromethyl-benzyl)-3H-pyrimidin-4-one]
< 3 | Cc1c(COc2ccc3c(c2)c2c(n3Cc3ccc4ccccc4c3)CNCC2)cccc1C(F)(F)F [Compound 522, 6-(2-Methyl-3-trifluoromethyl-benzyloxy)-9-naphthalen-2-ylmethyl-2,3,4,9-tetrahydro-1H-b-carboline]
< 3 | Fc1ccccc1-c1ccc(C2=CCNCC2)c(COc2ccccc2C(F)(F)F)c1 [Compound 372, 4-[2′-Fluoro-3-(2-trifluoromethyl-phenoxymethyl)-biphenyl-4-yl]-1,2,3,6-tetrahydro-pyridine]
< 3 | O=C(OCc1cc(C2=CCNCC2)c(COc2ccccc2C(F)(F)F)cc1-c1ccoc1)c1cccnc1Cl [Compound 386, 2-Chloro-nicotinic acid 2-furan-3-yl-5-(1,2,3,6-tetrahydro-pyridin-4-yl)-4-(2-trifluoromethyl-phenoxymethyl)-benzyl ester]
< 3 | O=S(=O)(NCC1CNCCC1c1ccc(COc2ccccc2C(F)(F)F)cc1)c1ccc2ccccc2c1 (stereo not drawn) [Compound 231, Naphthalene-2-sulfonic acid {4-[4-(2-trifluoromethyl-phenoxymethyl)-phenyl]-piperidin-3-ylmethyl}-amide]
< 3 | O=C(Nc1cc(F)c(-c2ccc(Cl)c(Cl)c2)cc1N1CCNCC1)c1cccc2ccccc12 [Compound 175, Naphthalene-1-carboxylic acid (3′,4′-dichloro-2-fluoro-5-piperazin-1-yl-biphenyl-4-yl)-amide]
3 to 30 | OCc1ccccc1-c1ccc(C2=CCNCC2)c(COc2ccccc2C(F)(F)F)c1 [Compound 378, [4′-(1,2,3,6-Tetrahydro-pyridin-4-yl)-3′-(2-trifluoromethyl-phenoxymethyl)-biphenyl-2-yl]-methanol]
< 3 | O=C(Nc1cc(C(F)(F)F)c(-c2cc(Cl)ccc2Cl)cc1N1CCNCC1)c1cccc2ccccc12 [Compound 169, Naphthalene-1-carboxylic acid (2′,5′-dichloro-5-piperazin-1-yl-2-trifluoromethyl-biphenyl-4-yl)-amide]
> 30 | O=C(Nc1cc(C(F)(F)F)cc(Cl)c1N1CCNCC1)c1cccc2ccccc12 [Compound 148, Naphthalene-1-carboxylic acid (3-chloro-2-piperazin-1-yl-5-trifluoromethyl-phenyl)-amide]
> 30 | O=C(Nc1ccc(OCc2ccccc2)cc1N1CCNCC1)c1cccc2ccccc12 [Compound 156, Naphthalene-1-carboxylic acid (4-benzyloxy-2-piperazin-1-yl-phenyl)-amide]
3 to 30 | CCOC(=O)c1cc(Br)cc(NCc2ccc3ccccc3n2)c1N1CCNCC1 [Compound 188, 5-Bromo-2-piperazin-1-yl-3-[(quinolin-2-ylmethyl)-amino]-benzoic acid ethyl ester]
< 3 | FC(F)Oc1ccc(COc2ccc3c(c2)c2c(n3Cc3cccc4ccccc34)CNCC2)cc1 [Compound 512, 6-(4-Difluoromethoxy-benzyloxy)-9-naphthalen-1-ylmethyl-2,3,4,9-tetrahydro-1H-b-carboline]
< 3 | O=C(OCc1ccc(COc2ccccc2C(F)(F)F)cc1C1=CCNCC1)c1cccc2ccccc12 [Compound 312, Naphthalene-1-carboxylic acid 2-(1,2,3,6-tetrahydro-pyridin-4-yl)-4-(2-trifluoromethyl-phenoxymethyl)-benzyl ester]
3 to 30 | O=C(O)C1CN(c2ccc(-c3ccc(C(F)(F)F)cc3)cc2NCc2ccc3ccccc3c2)CCN1 (stereo not drawn) [Compound 191, 4-{3-[(Naphthalen-2-ylmethyl)-amino]-4′-trifluoromethyl-biphenyl-4-yl}-piperazine-2-carboxylic acid]
< 3 | Ic1ccccc1COc1ccc2c(c1)c1c(n2Cc2cccc3ccccc23)CNCC1 [Compound 520, 6-(2-Iodo-benzyloxy)-9-naphthalen-1-ylmethyl-2,3,4,9-tetrahydro-1H-b-carboline]
